Test results from patent US11932624B2, “MDM2 degraders and uses thereof” (Kymera Therapeutics, Inc., priority 2020, dated 2024).

System: RS411 cells
Experiment: Cell Viability CTG Assay (CellTiter Glo) in RS411 cells
Format: cell-based
Conditions: Homo sapiens, RS4-11, 24 h, duration 1 day
In short: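 Read-out was CellTiter Glo luminescence, taken after 10 min at RT, following 1-4 days of incubation at 37 °C, 5% CO2. Cells were plated at 1000 per well with an 11-point, 3-fold series starting at 10 μM final in 0.2% DMSO. IC50 values are given as letter-code ranges.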

SMILES | IC50 [nM]
Cn1c(=O)n(C2CCC(=O)NC2=O)c2cccc(CN3CCC(OC4CCN(Cc5ccc(NC(=O)[C@@H]6NC7(CCCCC7)[C@@]7(C(=O)Nc8cc(Cl)ccc87)[C@H]6c6cccc(Cl)c6F)cc5)CC4)CC3)c21 (some centres unmarked) [I-139] | < 50
Cn1c(=O)n(C2CCC(=O)NC2=O)c2cccc(C#CC3CCN(C[C@H]4CC[C@H](CNC(=O)[C@@H]5NC6(CCCCC6)[C@@]6(C(=O)Nc7cc(Cl)ccc76)[C@H]5c5cccc(Cl)c5F)CC4)CC3)c21 (some centres unmarked) [I-140] | 500 to 1000
O=C1CCN(c2cnc3cc(C4CCN(C(=O)c5ccc(NC(=O)[C@@H]6NC7(CCCCC7)[C@@]7(C(=O)Nc8cc(Cl)ccc87)[C@H]6c6cccc(Cl)c6F)cc5)CC4)ccn23)C(=O)N1 [I-144] | 50 to 100
Cn1c(=O)n(C2CCC(=O)NC2=O)c2ccc(CCCN3CCN(C[C@H]4CC[C@H](NC(=O)[C@@H]5NC6(CCC(C)(C)CC6)[C@@]6(C(=O)Nc7cc(Cl)ccc76)[C@H]5c5ccnc(Cl)c5F)CC4)CC3)cc21 (some centres unmarked) [I-147] | < 50
Cn1c(=O)n(C2CCC(=O)NC2=O)c2cccc(C#CC3CCN(C[C@H]4CC[C@H](NC(=O)[C@@H]5NC6(CCC(C)(C)CC6)[C@@]6(C(=O)Nc7cc(Cl)ccc76)[C@H]5c5ccnc(Cl)c5F)CC4)CC3)c21 (some centres unmarked) [I-148] | < 50
Cn1c(=O)n(C2CCC(=O)NC2=O)c2ccc(C#CC3CCN(C[C@H]4CC[C@H](NC(=O)[C@@H]5NC6(CCC(C)(C)CC6)[C@@]6(C(=O)Nc7cc(Cl)ccc76)[C@H]5c5ccnc(Cl)c5F)CC4)CC3)cc21 (some centres unmarked) [I-149] | < 50
Cn1c(=O)n(C2CCC(=O)NC2=O)c2ccc(C(=O)CC3CCN(C[C@H]4CC[C@H](NC(=O)[C@@H]5NC6(CCOCC6)[C@@]6(C(=O)Nc7cc(Cl)ccc76)[C@H]5c5cccc(Cl)c5F)CC4)CC3)cc21 (some centres unmarked) [I-152] | 500 to 1000
Cn1c(=O)n(C2CCC(=O)NC2=O)c2ccc(CCN3CC4(CCN(C[C@H]5CC[C@H](NC(=O)[C@@H]6NC7(CCCCC7)[C@@]7(C(=O)Nc8cc(Cl)ccc87)[C@H]6c6cccc(Cl)c6F)CC5)CC4)C3)cc21 (some centres unmarked) [I-154] | < 50
CC1(C)CCC2(CC1)N[C@@H](C(=O)N[C@H]1CC[C@H](CN3CCC(C#Cc4cccn5c(N6CCC(=O)NC6=O)cnc45)CC3)CC1)[C@H](c1ccnc(Cl)c1F)[C@]21C(=O)Nc2cc(Cl)ccc21 [I-155] | < 50

Other lines, results leading:

IC50 [nM] | SMILES
> 1000 | Cn1c(=O)n(C2CCC(=O)NC2=O)c2ccc(CCC3CCN(CCNC(=O)[C@@H]4NC5(CCCCC5)[C@@]5(C(=O)Nc6cc(Cl)ccc65)[C@H]4c4cccc(Cl)c4F)CC3)cc21 (some centres unmarked) [I-138]
> 1000 | Cn1c(=O)n(C2CCC(=O)NC2=O)c2cccc(CCCN3CCN(CCCNC(=O)[C@@H]4NC5(CCCCC5)[C@@]5(C(=O)Nc6cc(Cl)ccc65)[C@H]4c4cccc(Cl)c4F)CC3)c21 (some centres unmarked) [I-141]
50 to 100 | O=C1CCN(c2cncc3cc(C#CC4CCN(C[C@H]5CC[C@H](NC(=O)[C@@H]6NC7(CCCCC7)[C@@]7(C(=O)Nc8cc(Cl)ccc87)[C@H]6c6cccc(Cl)c6F)CC5)CC4)ccc23)C(=O)N1 [I-142]
< 50 | O=C1CCC(N2Cc3c(C#CC4CCN(C(=O)C56CCC(NC(=O)[C@@H]7NC8(CCCCC8)[C@@]8(C(=O)Nc9cc(Cl)ccc98)[C@H]7c7cccc(Cl)c7F)(CC5)CC6)CC4)cccc3C2=O)C(=O)N1 (some centres unmarked) [I-143]
100 to 500 | O=C1CCN(c2cncc3c(C#CC4CCN(C[C@H]5CC[C@H](NC(=O)[C@@H]6NC7(CCCCC7)[C@@]7(C(=O)Nc8cc(Cl)ccc87)[C@H]6c6cccc(Cl)c6F)CC5)CC4)cccc23)C(=O)N1 [I-146]
< 50 | O=C1CCN(c2cnc3c(C#CC4CCN(C[C@H]5CC[C@H](NC(=O)[C@@H]6NC7(CCCCC7)[C@@]7(C(=O)Nc8cc(Cl)ccc87)[C@H]6c6cccc(Cl)c6F)CC5)CC4)cccn23)C(=O)N1 [I-150]
100 to 500 | Cn1c(=O)n(C2CCC(=O)NC2=O)c2ccc(CCCCCNC(=O)[C@H]3CC[C@H](NC(=O)[C@@H]4NC5(CCC(C)(C)CC5)[C@@]5(C(=O)Nc6cc(Cl)ccc65)[C@H]4c4ccnc(Cl)c4F)CC3)cc21 (some centres unmarked) [I-151]
< 50 | Cn1c(=O)n(C2CCC(=O)NC2=O)c2ccc(C#CC3CCN(C[C@H]4CC[C@H](NC(=O)[C@@H]5NC6(CCOCC6)[C@@]6(C(=O)Nc7cc(Cl)ccc76)[C@H]5c5cccc(Cl)c5F)CC4)CC3)cc21 (some centres unmarked) [I-153]
